# Data as given in publication PMC10323144, “Garbage in, garbage out: how reliable training data improved a virtual screening approach against SARS-CoV-2 MPro” (Frontiers in Pharmacology, 2023).
# Molecular target: SARS-CoV-2 MPro (Severe acute respiratory syndrome coronavirus 2, UniProt P0DTD1)
# Assay: MPro activity assay (de-quenching of Edans fluorescence on cleavage of a Dabcyl/Edans peptide)
# Type: biochemical
# Settings: 25 μM where stated
row,SMILES,activity against MPro (in words)
1,"O=C(O[C@@H]1Cc2c(O)cc(O)cc2O[C@@H]1c1ccc(O)c(O)c1)c1cc(O)c(O)c(O)c1 [5b, epicatechin gallate]",full inhibition

# Same assay, conditions: in-house acquired data, internal screening under standardized conditions (128 compounds)
row,SMILES,Class (MPro activity class)
1,Cc1ccc(NC(=O)c2ccccc2I)cc1 [COV19025],"0 (compounds with IC50 > 20 μM, percentage inhibition <80% at 20 µM or 50 μM, or percentage enzyme inhibition <50% at 10 µM were labelled as INACTIVE)"
2,Cc1nc(N)sc1C(=O)N(Cc1ccccc1)Cc1ccccc1 [ZVR-119],"0 (compounds with IC50 > 20 μM, percentage inhibition <80% at 20 µM or 50 μM, or percentage enzyme inhibition <50% at 10 µM were labelled as INACTIVE)"
3,COc1ccc2nc(N3C(=O)C(O)=C(C(=O)c4ccc5c(c4)OCCO5)C3c3ccc(O)c(OC)c3)sc2c1 (stereo not shown) [ADRMC156],"0 (compounds with IC50 > 20 μM, percentage inhibition <80% at 20 µM or 50 μM, or percentage enzyme inhibition <50% at 10 µM were labelled as INACTIVE)"
4,Nc1ncc2cc(-c3c(F)cccc3F)c(N)nc2n1 [ZEA107],"0 (compounds with IC50 > 20 μM, percentage inhibition <80% at 20 µM or 50 μM, or percentage enzyme inhibition <50% at 10 µM were labelled as INACTIVE)"
5,COc1cc(C2C(C(=O)c3ccc4c(c3)OCCO4)=C(O)C(=O)N2c2nc3ccc(Cl)cc3s2)ccc1O (stereo not shown) [ADRMC158],"0 (compounds with IC50 > 20 μM, percentage inhibition <80% at 20 µM or 50 μM, or percentage enzyme inhibition <50% at 10 µM were labelled as INACTIVE)"
6,CCOC(=O)C(=O)Nc1nc2c(s1)CC(NC(=O)c1cc(Br)c(Br)[nH]1)CC2 (stereo not shown) [Cpd 55],"0 (compounds with IC50 > 20 μM, percentage inhibition <80% at 20 µM or 50 μM, or percentage enzyme inhibition <50% at 10 µM were labelled as INACTIVE)"
7,O=C(O)C(=O)Nc1nc2c(s1)CC(NC(=O)c1cc(Br)c(Br)[nH]1)CC2 (stereo not shown) [Cpd 56],"0 (compounds with IC50 > 20 μM, percentage inhibition <80% at 20 µM or 50 μM, or percentage enzyme inhibition <50% at 10 µM were labelled as INACTIVE)"
8,O=c1c2ccccc2sn1-c1ccc(Cl)cc1 [COV19016],1 (Compounds with IC50 < 10 µM or with a percentage of enzyme inhibition >50% at 10 µM were labelled as ACTIVE)
9,COc1ccc(C2C(C(=O)c3ccc4c(c3)OCCO4)=C(O)C(=O)N2c2nc3ccccc3s2)cc1 (stereo not shown) [ADKPN165],"0 (compounds with IC50 > 20 μM, percentage inhibition <80% at 20 µM or 50 μM, or percentage enzyme inhibition <50% at 10 µM were labelled as INACTIVE)"
10,Cc1ccc(NC(=O)c2c(C)cc(Cl)cc2I)cc1 [COV19038],"0 (compounds with IC50 > 20 μM, percentage inhibition <80% at 20 µM or 50 μM, or percentage enzyme inhibition <50% at 10 µM were labelled as INACTIVE)"
11,COC(=O)c1ccc(-c2ccc(C3C(Oc4ccccc4)C(=O)N3Cc3ccccc3)cc2)cc1 (stereo not shown) [Mal2],"0 (compounds with IC50 > 20 μM, percentage inhibition <80% at 20 µM or 50 μM, or percentage enzyme inhibition <50% at 10 µM were labelled as INACTIVE)"
12,COC(=O)CC(=O)Nc1nc2c(s1)CC(NC(=O)c1[nH]c(C)c(Cl)c1Cl)CC2 (stereo not shown) [Cpd 53],"0 (compounds with IC50 > 20 μM, percentage inhibition <80% at 20 µM or 50 μM, or percentage enzyme inhibition <50% at 10 µM were labelled as INACTIVE)"
13,Cc1cccc2c(=O)n(Cc3ccccc3)sc12 [COV19007],"0 (compounds with IC50 > 20 μM, percentage inhibition <80% at 20 µM or 50 μM, or percentage enzyme inhibition <50% at 10 µM were labelled as INACTIVE)"

# Same assay, conditions: read-out: MPro activity (%)
row,SMILES,activity at 25 µM [%]
1,[O-][n+]1onc2ccc(/C=C\[S+]([O-])c3ccccc3)cc21 (stereo not shown) [12d],56.2 ± 0.5
2,O=S(=O)(/C=C\c1ccc2no[n+]([O-])c2c1)c1ccc(Cl)cc1 [13d],58 ± 0.3
3,CC(C)(C)OC(=O)NC1CCCN(CC(=O)NC(Cc2ccccc2)C(=O)Nc2nc3cc(Sc4ccccc4)ccc3[nH]2)C1=O (stereo not shown) [3a],64.9 ± 11.6
4,"O=C(O[C@@H]1Cc2c(O)cc(O)cc2O[C@@H]1c1ccc(O)c(O)c1)c1cc(O)c(O)c(O)c1 [5b, epicatechin gallate]",0
5,Cc1ccc([S+]([O-])/C=C\c2ccc3no[n+]([O-])c3c2)cc1 (stereo not shown) [14d],73.8 ± 4.4
